Reference: article doi:10.1101/2020.05.29.122762v3 (biorxiv, 2020)
Read-outs that look alike come from different tables or passages of the source.

Legend:
[1] = target: type PN SadP(125-329) (Streptococcus suis, UniProt G5DSS1, N271D); assay: biochemical
[2] = target: type PO SadP-6407(31-328); settings: PBS, 25 °C
[3] = target: T1, type PN SadP(125-329) (Streptococcus suis, UniProt G5DSS1); assay: biochemical
T1 sequence (G5DSS1 125-329): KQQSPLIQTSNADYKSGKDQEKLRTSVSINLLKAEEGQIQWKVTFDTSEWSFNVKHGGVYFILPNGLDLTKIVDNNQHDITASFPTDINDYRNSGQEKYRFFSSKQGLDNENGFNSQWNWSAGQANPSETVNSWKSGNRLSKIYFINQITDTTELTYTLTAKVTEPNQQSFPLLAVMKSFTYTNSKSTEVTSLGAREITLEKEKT

[4] = target: T2, type PN SadP-D282(31-328) (Streptococcus suis, UniProt G5DSS1); settings: PBS, 25 °C; n=1.14
T2 sequence (G5DSS1 31-328): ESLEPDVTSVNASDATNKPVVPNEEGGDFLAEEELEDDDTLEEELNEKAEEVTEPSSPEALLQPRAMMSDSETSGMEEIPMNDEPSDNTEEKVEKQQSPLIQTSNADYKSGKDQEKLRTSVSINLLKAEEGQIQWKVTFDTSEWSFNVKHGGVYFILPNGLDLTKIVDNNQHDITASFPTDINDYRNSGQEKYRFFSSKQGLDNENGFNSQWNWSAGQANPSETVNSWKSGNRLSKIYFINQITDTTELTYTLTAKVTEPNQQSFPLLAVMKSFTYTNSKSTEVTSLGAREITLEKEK

| Compound | Kd [1] | Kd ([2]; n=0.85) | Kd [3] | Kd ([2]; n=0.13, poorly defined fit) | Kd [4] |
| --- | --- | --- | --- | --- | --- |
| C[Si](C)(C)CCO[C@@H]1O[C@H](CO)[C@H](O[C@H]2O[C@H](CO)[C@H](O)[C@H](O)[C@H]2O)[C@H](O)[C@H]1O [Galα1–4Gal TMSEt glycoside] | 22.7 ± 7.2 µM | 3.5 ± 1.6 µM | – | – | – |
| CC(=O)N[C@H]1[C@H](O[C@H]2[C@@H](O)[C@@H](CO)O[C@H](O[C@@H]3[C@H](O)[C@@H](O)[C@H](OCC[Si](C)(C)C)O[C@@H]3CO)[C@@H]2O)O[C@H](CO)[C@H](O)[C@@H]1O [GalNAcβ1–3Galα1–4Gal TMSEt glycoside] | – | – | 36 ± 4.8 µM | 940 ± 680 µM | 33.7 ± 3.5 µM |
